Test results as given in ChEMBL document CHEMBL5321216, “Discovery of bipyridine amide derivatives targeting pRXRα-PLK1 interaction for anticancer therapy” (Eur J Med Chem, 2023).
The source made the active and inactive calls. The rule behind the calls is not given here.

Legend:
[1] = molecular target: T1, Retinoic acid receptor RXR-alpha (Homo sapiens) (UniProt P19793); assay: Antagonist activity at RXRalpha (unknown origin) transfected in human HeLa cells assessed as inhibition of CD3254- induced receptor transactivation by measuring remaining luciferase activity at 1 uM incubated for 24 hrs by dual luciferase reporter assay; format: cell-based; conditions: filed as antagonist
T1 sequence (whole entry): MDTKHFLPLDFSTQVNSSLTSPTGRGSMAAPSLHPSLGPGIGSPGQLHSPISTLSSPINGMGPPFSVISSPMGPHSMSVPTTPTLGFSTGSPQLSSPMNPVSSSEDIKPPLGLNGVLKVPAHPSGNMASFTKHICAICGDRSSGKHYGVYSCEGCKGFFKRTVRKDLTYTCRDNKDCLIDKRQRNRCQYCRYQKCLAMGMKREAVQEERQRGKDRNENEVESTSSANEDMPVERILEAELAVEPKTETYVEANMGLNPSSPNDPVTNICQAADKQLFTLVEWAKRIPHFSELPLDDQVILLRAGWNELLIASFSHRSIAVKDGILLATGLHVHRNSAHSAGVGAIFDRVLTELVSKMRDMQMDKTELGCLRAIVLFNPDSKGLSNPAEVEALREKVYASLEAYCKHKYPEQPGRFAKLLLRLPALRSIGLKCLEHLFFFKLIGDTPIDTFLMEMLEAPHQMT

[2] = system: A549; assay: Antiproliferative activity against human A549 cells assessed as inhibition of cell proliferation incubated for 72 hrs by MTT assay; format: functional, cell-based; conditions: A549, 72 h
[3] = system: HeLa; assay: Antiproliferative activity against human HeLa cells assessed as inhibition of cell proliferation incubated for 72 hrs by MTT assay; format: functional, cell-based
[4] = Selectivity index, ratio of IC50 for human HCC1937 cells to IC50 for human MDA-MB-231 cells; format: functional
[5] = Selectivity index, ratio of IC50 for human MCF7 cells to IC50 for human MDA-MB-231 cells; format: toxicity
[6] = Selectivity index, ratio of IC50 for human HepG2 cells to IC50 for human MDA-MB-231 cells; format: functional
[7] = system: A549; assay: Induction of cell cycle arrest in wild type human A549 cells assessed as accumulation of cells at G2 phase at 125 nM incubated for 12 hrs by DAPI staining based flow cytometry analysis (reference value: 21.99 %); format: functional
[8] = system: A549; assay: Induction of apoptosis in human A549 cells assessed as dead cells at 125 nM incubated for 24 hrs by annexin V-FITC/PI staining based flow cytometry analysis (reference value: 0.75%); format: functional
[9] = system: A549; assay: Induction of apoptosis in human A549 cells assessed as late apoptotic cells at 125 nM incubated for 24 hrs by annexin V-FITC/PI staining based flow cytometry analysis (reference value: 5.28%); format: functional
[10] = system: A549; assay: Induction of apoptosis in human A549 cells assessed as live cells at 125 nM incubated for 24 hrs by annexin V-FITC/PI staining based flow cytometry analysis (reference value: 93.2%); format: functional
[11] = system: MDA-MB-231; assay: Induction of cell cycle arrest in human MDA-MB-231 cells assessed as accumulation of cells at G1 phase at 15.625 nM incubated for 12 hrs by flow cytometry analysis (reference value: 43.2%); format: functional; conditions: 0.01562 µM
[12] = system: MDA-MB-231; assay: Induction of cell cycle arrest in human MDA-MB-231 cells assessed as accumulation of cells at G2 phase at 31.25 nM incubated for 12 hrs by flow cytometry analysis (reference value: 15.91%); format: functional
[13] = system: MDA-MB-231; assay: Induction of cell cycle arrest in human MDA-MB-231 cells assessed as accumulation of cells at G1 phase at 62.5 nM incubated for 12 hrs by flow cytometry analysis (reference value: 43.2%); format: functional
[14] = system: MDA-MB-231; assay: Induction of cell cycle arrest in human MDA-MB-231 cells assessed as accumulation of cells at G2 phase at 62.5 nM incubated for 12 hrs by flow cytometry analysis (reference value: 15.91%); format: functional
[15] = system: A549; assay: Induction of cell cycle arrest in human A549 cells assessed as accumulation of cells at G1 phase at 15.625 nM incubated for 12 hrs by flow cytometry analysis (reference value: 59.57%); format: functional; conditions: 0.01562 µM
[16] = system: A549; assay: Induction of cell cycle arrest in human A549 cells assessed as accumulation of cells at S phase at 15.625 nM incubated for 12 hrs by flow cytometry analysis (reference value: 31.81%); format: functional; conditions: 0.01562 µM
[17] = system: A549; assay: Induction of cell cycle arrest in human A549 cells assessed as accumulation of cells at G2 phase at 15.625 nM incubated for 12 hrs by flow cytometry analysis (reference value: 8.62%); format: functional; conditions: 0.01562 µM
[18] = system: A549; assay: Induction of cell cycle arrest in human A549 cells assessed as accumulation of cells at G2 phase at 62.5 nM incubated for 12 hrs by flow cytometry analysis (reference value: 8.62%); format: functional
[19] = system: MDA-MB-231; assay: Induction of apoptosis in human MDA-MB-231 cells assessed as dead cells at 62.5 nM incubated for 24 hrs by annexin V-FITC/PI staining based flow cytometry analysis (reference value: 0.69%); format: functional
[20] = system: MDA-MB-231; assay: Induction of apoptosis in human MDA-MB-231 cells assessed as dead cells at 125 nM incubated for 24 hrs by annexin V-FITC/PI staining based flow cytometry analysis (reference value: 0.69%); format: functional
[21] = system: MDA-MB-231; assay: Induction of apoptosis in human MDA-MB-231 cells assessed as live cells at 250 nM incubated for 24 hrs by annexin V-FITC/PI staining based flow cytometry analysis (reference value: 91.3%); format: functional
[22] = system: MDA-MB-231; assay: Induction of apoptosis in human MDA-MB-231 cells assessed as early apoptotic cells at 250 nM incubated for 24 hrs by annexin V-FITC/PI staining based flow cytometry analysis (reference value: 2.03%); format: functional
[23] = Drug absorption in KM mouse at 25 mg/kg, po measured after 0.5 to 2 hrs; format: ADME, organism-based; conditions: in vivo, time 0.5-2 hrs
[24] = Apparent clearance during terminal phase in Sprague-Dawley rat at 25 mg/kg, ip measured for 48 hrs by LC-MS/MS analysis; format: ADME, organism-based; conditions: in vivo, read-out: CLz/F (converted)
[25] = system: MDA-MB-231; assay: Antitumor activity against human MDA-MB-231 cells xenografted in BALB/c nude mouse assessed as tumor growth inhibition at 25 mg/kg/day, ip administered for 15 days and measured once a day relative to control; format: functional; conditions: MDA-MB-231, 360 h, time 15 day, read-out: TGI
[26] = system: MDA-MB-231; assay: Antitumor activity against human MDA-MB-231 cells xenografted in BALB/c nude mouse assessed as reduction in tumor volume at 25 mg/kg/day, ip administered for 15 days and measured once a day; format: functional, organism-based; conditions: time 15.0 day
[27] = Toxicity in BALB/c mouse xenografted with human MDA-MB-231 cells assessed as lung damage at 25 mg/kg/day, ip administered for 15 days by H and E staining based analysis; format: organism-based; conditions: in vivo, 360 h, time 15 day
[28] = Toxicity in BALB/c mouse xenografted with human MDA-MB-231 cells assessed as spleen damage at 25 mg/kg/day, ip administered for 15 days by H and E staining based analysis; format: organism-based; conditions: in vivo, 360 h, time 15 day
[29] = system: MDA-MB-231; assay: Downregulation of RXRalpha protein level in human MDA-MB-231 cells at 125 nM measured after 1 to 24 hrs by Western blot analysis; format: functional, cell-based; conditions: time 1-24 hrs

**Q.** Which inhibition [1] does the source give for `O=C(/C=C/c1ccccc1)Nc1cc(-c2ccnc(N3CCC(CO)CC3)c2)ccn1` here?
**A.** Active

**Q.** What about the IC50 [2] of the same molecule?
**A.** 201 nM

**Q.** And the IC50 [3]?
**A.** 77 nM

**Q.** And the “Ratio IC50” value [4]?
**A.** 35.06

**Q.** What about the “Ratio IC50” value [5] of the same molecule?
**A.** 146.5

**Q.** What about the “Ratio IC50” value [6] of the same molecule?
**A.** 4.81

**Q.** What about the Activity [7] of the same molecule?
**A.** 79.66%

**Q.** And the Activity [8]?
**A.** 2.31%

**Q.** And the Activity [9]?
**A.** 22.8%

**Q.** And the Activity [10]?
**A.** 52%

**Q.** And the Activity [11]?
**A.** 42.77%

**Q.** And the Activity [12]?
**A.** 27.02%

**Q.** And the Activity [13]?
**A.** 1.81%

**Q.** And the Activity [14]?
**A.** 81.68%

**Q.** And the Activity [15]?
**A.** 59.06%

**Q.** What about the Activity [16] of the same molecule?
**A.** 31.99%

**Q.** And the Activity [17]?
**A.** 8.95%

**Q.** And the Activity [18]?
**A.** 12.89%

**Q.** What about the Activity [19] of the same molecule?
**A.** 2.47%

**Q.** What about the Activity [20] of the same molecule?
**A.** 2.78%

**Q.** What about the Activity [21] of the same molecule?
**A.** 57.9%

**Q.** What about the Activity [22] of the same molecule?
**A.** 20.2%

**Q.** What about the Drug absorption [23] of the same molecule?
**A.** Not Active

**Q.** What about the CL/F [24] of the same molecule?
**A.** 25.8 mL/min/kg

**Q.** What about the inhibition in vivo at 25 mg/kg/day [25] of the same molecule?
**A.** 59.3%

**Q.** And the Activity [26]?
**A.** Active

**Q.** And the Activity [27]?
**A.** Non-Toxic

**Q.** What about the Activity [28] of the same molecule?
**A.** Non-Toxic

**Q.** What about the Activity [29] of the same molecule?
**A.** Active
